System: H358 cells
Assay: Cell activity experiment: activity test of H358 cells (MTT, 5 days)
Assay type: cell-based
Details: 5 days incubation, absorbance 492 nm
Description: Example: Cell Activity Experiment
1. Cells: H358 purchased from Shanghai EK-Bioscience Biotechnology Co., Ltd.
2. Reagents: RPMI 1640 medium, Tryple, MTT (5 mg/mL), DMSO, and DPBS.
3. Instruments: an incubator at 37° C. and 5% CO2, a UTRAO microplate reader, a biosafety cabinet, a cell counting plate, and an Optec optical microscope.
4. Experimental consumables: 96-well plate Item No.: 3599, and 96-well round-bottomed dispensing plate.
Experimental Steps of Activity Test of H358 Cells:
1. Plating: Cells in the logarithmic growth phase were digested with Tryple and terminated with a fresh medium, and the cells were counted; and the cell concentration was adjusted to 55555 cells/mL with a fresh medium, wherein 90 μL was added to each well, and those on edges were filled with sterile DPBS.
2. The plate was incubated in the incubator at 37° C. and 5% CO2 for 24 h, so that the cells cover the bottom of the well by about 50%.
3. Drug preparation for experimental group: The drug was dissolved in DMSO to prepare a 20 mmol/L stock solution; the stock solution was further diluted with DMSO to 2 mmol/L, which was serially 3-fold diluted to form an […]-concentration gradient, resulting in a 200× serial compound solution; 10 μL of the serial compound solution was taken and added to 190 μLμL of RPMI1640 medium to obtain a 10× serial compound solution; and 10 μL of the 10× compound solution was taken and added to 90 μL 96-well cell culture plate, with three replicates per grade. The concentration gradient of the compound in the 96-well cell culture plate was […], 1.524158 nM, 4.572474 nM, 13.717420 nM, 41.152260 nM, 123.456800 nM, 370.370400 nM, 1111.111000 nM, 3333.333000 nM, and 10000.000000 nM, with 100 μL per well, and the final concentration of DMSO was 0.5%.
The control group contained the same volume of solvent as the experimental group and was diluted with a complete medium, with 100 μL per well.
4. Incubation was carried out for 5 days in an incubator with 5% CO2 at 37° C.
5. After 5 days, 10 μL of an MTT solution (5 mg/mL) was added to each well, and the culture was continued for 4 h.
6. The culture was terminated, and the culture solution was carefully sucked out of the well.
7. 150 μL of dimethyl sulfoxide (DMSO) was added to each of the null wells in the experimental group and the control group; and after shaking at a medium speed for 10 s, the crystal was fully dissolved, and the optical absorbance value thereof was measured at a wavelength of 492 nm.

Q: Which IC50 does the source give for C=C(F)C(=O)N1CCN(c2nc(OCC3(CN4CCCC4)CC3)nc3c(F)c(-c4cccc5c4C4CC4C5)ncc23)C[C@@H]1CC#N (single isomer, unassigned) [Example 868] here?
A: 6.6 nM

Q: Which IC50 does the source give for C=C(F)C(=O)N1CCN(c2nc(OCC3(CN4CCCC4)CC3)nc3c(F)c(-c4cccc5c4C4CC4C5)ccc23)C[C@@H]1CC#N (single isomer, unassigned) [Example 871] here?
A: 9 nM

Q: With C=CC(=O)N1CCN(c2nc(OC[C@@H]3CCCN3C)nc3c(F)c(-c4cccc5c4CC4CC54)ncc23)C[C@@H]1CC#N (single isomer, unassigned) [Example 874] as the molecule, how does the IC50 read?
A: 429 nM

Q: With C=CC(=O)N1CCN(c2nc(OC[C@@]34CCCN3C[C@H](F)C4)nc3c(F)c(-c4cccc5c4CC4CC54)ncc23)C[C@@H]1CC#N (single isomer, unassigned) [Example 877] as the molecule, how does the IC50 read?
A: 9.5 nM

Q: With C=C(F)C(=O)N1CCN(c2nc(OC[C@@]34CCCN3C[C@H](F)C4)nc3c(F)c(-c4cccc5c4CC4CC54)ncc23)C[C@@H]1CC#N (single isomer, unassigned) [Example 880] as the molecule, how does the IC50 read?
A: 433 nM

Q: With C=CC(=O)N1CCN(c2nc(OC[C@@H]3CCCN3C)nc3c(F)c(-c4cccc5c4CC4CC54)ccc23)C[C@@H]1CC#N (single isomer, unassigned) [Example 882] as the molecule, how does the IC50 read?
A: 550 nM

Q: C=C(F)C(=O)N1CCN(c2nc(OC[C@@H]3CCCN3C)nc3c(F)c(-c4cccc5c4CC4CC54)ccc23)C[C@@H]1CC#N (single isomer, unassigned) [Example 884] was tested. Which IC50 did it give?
A: 1260 nM

Q: Which IC50 does the source give for C=C(F)C(=O)N1CCN(c2nc(OC[C@@]34CCCN3C[C@H](F)C4)nc3c(F)c(-c4cccc5c4CC4CC54)ccc23)C[C@@H]1CC#N (single isomer, unassigned) [Example 888] here?
A: 292 nM

Q: For C=C(F)C(=O)N1CCN(c2nc(OC[C@@]34CCCN3C[C@H](F)C4)nc3c(OC4CC4)c(-c4cccc5c4CC4CC54)c(Cl)cc23)C[C@@H]1CC#N (single isomer, unassigned) [Example 918], which IC50 is on record?
A: 40 nM

Q: C=C(F)C(=O)N1CCN(c2nc(OC[C@@]34CCCN3C[C@H](F)C4)nc3c(OC4CC4)c(-c4cccc5c4CC4CC54)c(Cl)cc23)C[C@@H]1CC#N (single isomer, unassigned) [Example 919] was tested. Which IC50 did it give?
A: 1680 nM

Same assay, conditions: Homo sapiens, NCI-H358, 120 h, 5 days incubation, absorbance 492 nm

Q: With C=C(F)C(=O)N1CCN(c2nc(OCC3(CN4CCCC4)CC3)nc3c(F)c(-c4cccc5c4C4CC4C5)ncc23)C[C@@H]1CC#N (single isomer, unassigned) [Example 867] as the molecule, how does the IC50 read?
A: 5.9 nM

Q: Which IC50 does the source give for C=C(F)C(=O)N1CCN(c2nc(OCC3(CN4CCCC4)CC3)nc3c(F)c(-c4cccc5c4C4CC4C5)ccc23)C[C@@H]1CC#N (single isomer, unassigned) [Example 870] here?
A: 7.2 nM

Q: With C=CC(=O)N1CCN(c2nc(OC[C@@]34CCCN3C[C@H](F)C4)nc3c(F)c(-c4cccc5c4CC4CC54)ncc23)C[C@@H]1CC#N (single isomer, unassigned) [Example 878] as the molecule, how does the IC50 read?
A: 236 nM

Q: How did the IC50 turn out when C=C(F)C(=O)N1CCN(c2nc(OC[C@@H]3CCCN3C)nc3c(F)c(-c4cccc5c4CCCC5)ncc23)C[C@@H]1CC#N [Example 4, 2-((S)-4-(8-fluoro-2-(((S)-1-methylpyrrolidin-2-yl)methoxy)-7-(5,6,7,8-tetrahydronaphthalen-1-yl)pyridino[4,3-d]pyrimidin-4-yl)-1-(2-fluoroacryloyl)piperazin-2-yl)acetonitrile] was run?
A: 70 nM

Q: How did the IC50 turn out when C=CC(=O)N1CCN(c2nc(OC[C@@H]3C[C@@H](F)CN3C)nc3c(F)c(-c4cccc5c4CCCC5)ncc23)C[C@@H]1CC#N [Example 5, 2-((S)-1-acryloyl-4-(8-fluoro-2-(((2S,4R)-4-fluoro-1-methylpyrrolidin-2-yl)methoxy)-7-(5,6,7,8-tetrahydronaphthalen-1-yl)pyridino[4,3-d]pyrimidin-4-yl)piperazin-2-yl)acetonitrile] was run?
A: 20 nM

Q: How did the IC50 turn out when C=C(F)C(=O)N1CCN(c2nc(OC[C@@H]3C[C@@H](F)CN3C)nc3c(F)c(-c4cccc5c4CCCC5)ncc23)C[C@@H]1CC#N [Example 6] was run?
A: 90 nM

Q: C=CC(=O)N1CCN(c2nc(OC[C@@]34CCCN3C[C@H](F)C4)nc3c(F)c(-c4cccc5c4CCCC5)ncc23)C[C@@H]1CC#N [Example 7, 2-((S)-1-acryloyl-4-(8-fluoro-2-(((2R,7aS)-2-fluorotetrahydro-1H-pyrrolizin-7a(5H)-yl)methoxy)-7-(5,6,7,8-tetrahydronaphthalen-1-yl)pyridino[4,3-d]pyrimidin-4-yl)piperazin-2-yl)acetonitrile] was tested. Which IC50 did it give?
A: 0.07 nM

Q: For C=C(F)C(=O)N1CCN(c2nc(OC[C@@]34CCCN3C[C@H](F)C4)nc3c(F)c(-c4cccc5c4CCCC5)ncc23)C[C@@H]1CC#N [Example 8, 2-((S)-4-(8-fluoro-2-(((2R,7aS)-2-fluorotetrahydro-1H-pyrrolizin-7a(5H)-yl)methoxy)-7-(5,6,7,8-tetrahydronaphthalen-1-yl)pyridino[4,3-d]pyrimidin-4-yl)-1-(2-fluoroacryloyl)piperazin-2-yl)acetonitrile], which IC50 is on record?
A: 0.64 nM

Q: Which IC50 does the source give for C=CC(=O)N1CC[C@@H]2[C@H]1CN2c1nc(OC[C@@H]2CCCN2C)nc2c(F)c(-c3cccc4c3CCCC4)ncc12 [Example 9, 1-((1R,5R)-6-(8-fluoro-2-(((S)-1-methylpyrrolidin-2-yl)methoxy)-7-(5,6,7,8-tetrahydronaphthalen-1-yl)pyridino[4,3-d]pyrimidin-4-yl)-2,6-diazabicyclo[3.2.0]hept-2-yl)prop-2-en-1-one] here?
A: 10 nM

Q: For C=CC(=O)N1CC[C@@H]2[C@H]1CN2c1nc(OC[C@@H]2C[C@@H](F)CN2C)nc2c(F)c(-c3cccc4c3CCCC4)ncc12 [Example 11], which IC50 is on record?
A: 26 nM

Q: C=C(F)C(=O)N1CC[C@@H]2[C@H]1CN2c1nc(OC[C@@H]2C[C@@H](F)CN2C)nc2c(F)c(-c3cccc4c3CCCC4)ncc12 [Example 12] was tested. Which IC50 did it give?
A: 80 nM

Q: For C=CC(=O)N1CC[C@@H]2[C@H]1CN2c1nc(OCC23CCCN2CCC3)nc2c(F)c(-c3cccc4c3CCCC4)ncc12 [Example 13, 1-((1R,5R)-6-(8-fluoro-2-((tetrahydro-1H-pyrrolizin-7a(5H)-yl)methoxy)-7-(5,6,7,8-tetrahydronaphthalen-1-yl)pyridino[4,3-d]pyrimidin-4-yl)-2,6-diazabicyclo[3.2.0]hept-2-yl)prop-2-en-1-one], which IC50 is on record?
A: 5 nM

Q: How did the IC50 turn out when C=C(F)C(=O)N1CC[C@@H]2[C@H]1CN2c1nc(OCC23CCCN2CCC3)nc2c(F)c(-c3cccc4c3CCCC4)ncc12 [Example 14, 2-fluoro-1-((1R,5R)-6-(8-fluoro-2-((tetrahydro-1H-pyrrolizin-7a(5H)-yl)methoxy)-7-(5,6,7,8-tetrahydronaphthalen-1-yl)pyridino[4,3-d]pyrimidin-4-yl)-2,6-diazabicyclo[3.2.0]hept-2-yl)prop-2-en-1-one] was run?
A: 30 nM

Q: With C=CC(=O)N1CC[C@@H]2[C@H]1CN2c1nc(OC[C@@]23CCCN2C[C@H](F)C3)nc2c(F)c(-c3cccc4c3CCCC4)ncc12 [Example 15] as the molecule, how does the IC50 read?
A: 3 nM

Q: With C=C(F)C(=O)N1CC[C@@H]2[C@H]1CN2c1nc(OC[C@@]23CCCN2C[C@H](F)C3)nc2c(F)c(-c3cccc4c3CCCC4)ncc12 [Example 16] as the molecule, how does the IC50 read?
A: 5 nM

Q: With C=C(F)C(=O)N1CCN(c2nc(OC[C@@H]3CCCN3C)nc3c(F)c(-c4ccc(F)c5c4CCCC5)ncc23)C[C@@H]1CC#N [Example 18] as the molecule, how does the IC50 read?
A: 100 nM

Q: C=CC(=O)N1CCN(c2nc(OC[C@@H]3C[C@@H](F)CN3C)nc3c(F)c(-c4ccc(F)c5c4CCCC5)ncc23)C[C@@H]1CC#N [Example 19] was tested. Which IC50 did it give?
A: 35 nM

Q: Which IC50 does the source give for C=C(F)C(=O)N1CCN(c2nc(OC[C@@H]3C[C@@H](F)CN3C)nc3c(F)c(-c4ccc(F)c5c4CCCC5)ncc23)C[C@@H]1CC#N [Example 20] here?
A: 120 nM

Q: Which IC50 does the source give for C=CC(=O)N1CCN(c2nc(OCC34CCCN3CCC4)nc3c(F)c(-c4ccc(F)c5c4CCCC5)ncc23)C[C@@H]1CC#N [Example 21] here?
A: 7 nM

Q: C=C(F)C(=O)N1CCN(c2nc(OCC34CCCN3CCC4)nc3c(F)c(-c4ccc(F)c5c4CCCC5)ncc23)C[C@@H]1CC#N [Example 22] was tested. Which IC50 did it give?
A: 20 nM

Q: For C=CC(=O)N1CCN(c2nc(OC[C@@]34CCCN3C[C@H](F)C4)nc3c(F)c(-c4ccc(F)c5c4CCCC5)ncc23)C[C@@H]1CC#N [Example 23], which IC50 is on record?
A: 3 nM

Q: C=C(F)C(=O)N1CCN(c2nc(OC[C@@]34CCCN3C[C@H](F)C4)nc3c(F)c(-c4ccc(F)c5c4CCCC5)ncc23)C[C@@H]1CC#N [Example 24] was tested. Which IC50 did it give?
A: 15 nM

Q: C=CC(=O)N1CC[C@@H]2[C@H]1CN2c1nc(OC[C@@H]2CCCN2C)nc2c(F)c(-c3ccc(F)c4c3CCCC4)ncc12 [Example 25] was tested. Which IC50 did it give?
A: 10 nM

— patent US20240109893A1, “PREPARATION AND APPLICATION METHOD OF HETEROCYCLIC COMPOUNDS AS KRAS INHIBITOR” (SHANGHAI KECHOW PHARMA, INC., priority 2020, published 2024)
